Experimental data from article PMC12040169 (PLOS Biology, 2025).

Assay: in vitro
Details: human, hela cells

`CN(C)[C@@H]1C[C@H](C2(c3ccccc3)OCCO2)CC[C@H]1N(C)C(=O)Cc1ccc(Cl)c(Cl)c1` [CBK016338] gave a viability at 28.5 h, 10 µM of 87.8%.

Same assay, conditions: human, hela cells, % viability

Going from `CC(C)CCc1ccc(C#N)c(=O)[nH]1` [CBK016227] to `CC(C)c1c(SCCN)[nH]c2ccccc12` [CBK017265C], the viability at 28.5 h, 10 µM falls from 98.8% to 96%.

First: O=C(O)c1ccccc1C1SCCCS1 [CBK016303]
Second: O=C(C[S+]([O-])c1nc2ccccc2[nH]1)N1CCOCC1 (stereo not shown) [CBK016397]
The viability at 28.5 h, 10 µM of the first is lower: 91.4% for the first, 98.1% for the second.

Going from `S=c1[nH]nnn1-c1ccc(Cl)c(Cl)c1` [CBK016327] to `O=S(=O)(Nc1cccc(Cl)c1Cl)c1ccc(Cl)c(Cl)c1` [CBK017446], the viability at 28.5 h, 10 µM falls from 96.7% to 79.2%.

Going from `c1ccc2sc(SCCN3CCCCC3)nc2c1` [CBK016366] to `O=[N+]([O-])c1ccc(N2CCCCC2)s1` [CBK016566], the viability at 28.5 h, 10 µM falls from 109% to 104%.

`COc1cccc(-n2c(C)nnc2C2(OC(C)=O)CCN(CCc3ccccc3)CC2)c1` [CBK016371] and `CC(C)(C)OC(=O)N1CCN(CCOc2ccc(NC(=O)OCc3ccccc3)cc2F)CC1` [CBK016854] are the same in viability at 28.5 h, 10 µM: 108% for the first, 108% for the second.

Going from `O=C(O)COCc1nn(-c2ccc(Br)cc2)c2c1CCCC2` [CBK016404] to `CC(=O)c1c(CSc2ccccc2)nn2c1CCCC2` [CBK016543], the viability at 28.5 h, 10 µM falls from 98.6% to 78.9%.

Compared with `CCCN1CCCC(c2cccc(O)c2)C1` (stereo not shown) [CBK016405B], `CCCN(CC1CC1)C1CCc2cccc(C(N)=O)c2C1` (stereo not shown) [CBK016579] is higher in viability at 28.5 h, 10 µM: 92.6% for the first, 114% for the second.

First: Cc1cccc(C)c1NC(=S)N1CCC2(CC1)OCCO2 [CBK016408]
Second: c1nc(N2CCOCC2)c2cn[nH]c2n1 [CBK016811]
The viability at 28.5 h, 10 µM of the first is higher: 117% for the first, 86.3% for the second.

Compared with `COc1ccc2c3c(cc(Cl)cc13)CC(N)C2` (stereo not shown) [CBK016450C], `COc1ccc2[nH]cc(CCNC3CCc4cccc(OC)c4C3)c2c1` (stereo not shown) [CBK016569C] is lower in viability at 28.5 h, 10 µM: 84.2% for the first, 80.1% for the second.

First: Cc1nc(O)c2c3c(sc2n1)CCCC3 [CBK016462]
Second: Cc1c(C)n(C)c2nc(N3CCCC3)nc(N3CCCC3)c12 [CBK016683C]
The viability at 28.5 h, 10 µM of the first is lower: 83.1% for the first, 90.1% for the second.

First: CCc1c(CC)c(OC(=O)C(N)C(C)C)c2ccccc2c1OC (stereo not shown) [CBK016484C]
Second: CCCSc1cc(=O)oc2ccccc12 [CBK017493]
The viability at 28.5 h, 10 µM of the first is higher: 93.4% for the first, 87.3% for the second.

Compared with `CC(C)(C)C(=O)c1cnc2sc3ccccc3n12` [CBK016512], `COc1ccc2c(c1)sc1ncc(C#N)n12` [CBK016716] is lower in viability at 28.5 h, 10 µM: 91.6% for the first, 87.9% for the second.

First: CCC1C(c2ccc(C)cc2)=CCC(C(=O)NCCCN(C)C)C1C (stereo not shown) [CBK016514]
Second: Cc1ccc(Cl)cc1NC(=O)OCCN(C)C [CBK016906]
The viability at 28.5 h, 10 µM of the first is lower: 79.6% for the first, 98.3% for the second.

First: COC(=O)c1cc(NC(=O)OC(C)(C)C)ccc1O [CBK016529]
Second: C[C@@H]1CN(C(=O)c2cc3c(C(=O)OC(C)(C)C)ncn3c3ccc(Cl)cc23)C[C@H](C)N1 [CBK016744]
The viability at 28.5 h, 10 µM of the first is lower: 86% for the first, 115% for the second.

Compared with `CCC(C)(C)NC(=NC#N)Nc1cccnc1` [CBK016580], `CSc1[nH]nc(-c2ccc(C(C)(C)C)cc2)c1C#N` [CBK016999] is higher in viability at 28.5 h, 10 µM: 85.1% for the first, 108% for the second.

Compared with `CC(=O)Oc1ccc2c(=O)cc(N(C)C)oc2c1C` [CBK016581], `CCC(Cc1ccccc1C)c1cc(O)c(C(c2ccccc2)C2CC2)c(=O)o1` (stereo not shown) [CBK016783] is higher in viability at 28.5 h, 10 µM: 60.5% for the first, 98.3% for the second.

Going from `S=C(NC1=NCCS1)Nc1ccccc1` [CBK016591] to `O=C(Nc1ccccc1)Nc1ccc([N+](=O)[O-])cc1` [CBK016975], the viability at 28.5 h, 10 µM rises from 95.2% to 99.6%.

Going from `CC(C)c1noc(-c2ncn3c2c(=O)n(C(C)C)c2cc(F)ccc23)n1` [CBK016659] to `CC(C)c1c(N)nc(SCc2ccccc2)nc1Cl` [CBK016721], the viability at 28.5 h, 10 µM rises from 102% to 123%.

Going from `CCC(c1c(O)c2ccccc2oc1=O)c1cccc2ccccc12` (stereo not shown) [CBK016684] to `O=c1oc2ccccc2c(O)c1Cc1c(O)c2ccccc2oc1=O` [CBK016703G], the viability at 28.5 h, 10 µM falls from 102% to 74%.

First: O=c1[nH]c2cccc3c2n1C[C@H](NCCc1ccccc1)C3 [CBK016688C]
Second: O=C1O[C@@H](CO)CN1c1ccc(N(Cc2ccccc2)Cc2ccccc2)c(F)c1 [CBK016873]
The viability at 28.5 h, 10 µM of the first is higher: 105% for the first, 103% for the second.

Compared with `CC(C)Nc1cccnc1N1CCN(C(=O)c2ccncc2)CC1` [CBK016714], `CC(C)Nc1cccnc1N(C)C1CCN(C(=O)c2cc(Br)c[nH]2)CC1` [CBK016797] is higher in viability at 28.5 h, 10 µM: 79% for the first, 105% for the second.

Compared with `CC(C)(C)OC(=O)N(CCCN1CCN(c2ccc(F)cc2)CC1)c1ccccc1` [CBK016723], `O=C(O)CC/C(=N\Nc1ccc([N+](=O)[O-])cc1)c1ccc(F)cc1` [CBK017075] is higher in viability at 28.5 h, 10 µM: 89.2% for the first, 110% for the second.

Compared with `CCN(CC)CCOC1CCc2ccccc2CC1` [CBK016730C], `CCN(CC)CCCC(C)Nc1ccnc2cc(Cl)ccc12` (stereo not shown) [CBK017143] is lower in viability at 28.5 h, 10 µM: 96.7% for the first, 85.6% for the second.

Compared with `O=c1[nH]c2ccncc2c2ccccc12` [CBK016740C], `Nc1ccc2nc(-c3ccccn3)[nH]c2c1` [CBK017167] is higher in viability at 28.5 h, 10 µM: 92% for the first, 100% for the second.

Compared with `CSc1[nH]nc(N)c1-c1ccc([N+](=O)[O-])cc1` [CBK016751], `N#Cc1sc(NC(=O)c2cccc(Br)c2)nc1Cl` [CBK017468] is lower in viability at 28.5 h, 10 µM: 88% for the first, 45.4% for the second.

Going from `CC(C)(C)c1cc(N)c(C(N)=O)s1` [CBK016752] to `CC(C)(C)NC(=O)N/N=C/c1[nH]ncc1Br` [CBK017439], the viability at 28.5 h, 10 µM rises from 91.3% to 96%.

First: c1ncn(C2CCCCC2)c1C1CCCCC1 [CBK016758]
Second: NS(=O)(=O)c1ccccc1NC(=O)NC1CCCCC1 [CBK016919]
The viability at 28.5 h, 10 µM of the first is higher: 101% for the first, 93.4% for the second.

First: CCCCC(Sc1nc(N)cc(Cl)n1)c1cc(C)ccn1 (stereo not shown) [CBK016827]
Second: NCCSc1cc(C(F)(F)F)nc2ccccc12 [CBK017035]
The viability at 28.5 h, 10 µM of the first is higher: 106% for the first, 81.9% for the second.

Going from `CC(C)CNc1n[nH]c(=S)s1` [CBK016865] to `CC(C)Nc1ncnc2scc(-c3cccs3)c12` [CBK017085], the viability at 28.5 h, 10 µM falls from 95.9% to 85.9%.

Going from `FC(F)(F)c1cc(NCCC2CCCCN2)cc(C(F)(F)F)c1` (stereo not shown) [CBK016963] to `Nc1ncnc(Nc2cccc(C(F)(F)F)c2)n1` [CBK017403], the viability at 28.5 h, 10 µM falls from 88.6% to 82.4%.

First: CCCSc1scc2c1-c1n[nH]cc1CC2 [CBK017006]
Second: O=S(=O)(Nc1cccc2nsnc12)c1cccs1 [CBK017018]
The viability at 28.5 h, 10 µM of the first is higher: 99.3% for the first, 75.6% for the second.

Compared with `NC(=O)c1cc(C(=O)c2ccccc2F)c[nH]1` [CBK017284], `CS(=O)(=O)c1nc(-c2ccccc2)ns1` [CBK017338] is lower in viability at 28.5 h, 10 µM: 112% for the first, 90.6% for the second.

First: CC1=NN(c2cccc(S(=O)(=O)O)c2C(=O)Nc2ccccc2)C(=O)C1 [CBK017343]
Second: Nc1ccc2c(O)c(C(=O)NCc3ccc(Cl)cc3)c(=O)[nH]c2c1 [CBK017557]
The viability at 28.5 h, 10 µM of the first is higher: 98.4% for the first, 91.4% for the second.

Work on `C[S+]([O-])CCn1c2ccccc2c2c(N3CCCC3)nc(N3CCCC3)nc21` (stereo not shown) [CBK017586] yielded a viability at 28.5 h, 10 µM of 91.9%.

Same assay, conditions: human, hela cells, % viability, bulk resorufin, single well

First: CCCC(=O)C1(c2ccccc2)CCN(C(=O)Nc2cccc(SC)c2)CC1 [CBK016441]
Second: O=C(NO)Nc1ccc(Cl)c(Cl)c1 [CBK016929]
The viability at 28.5 h, 10 µM of the first is lower: 94.6% for the first, 96.3% for the second.
